Measurements published in patent US12162867B2, “Inhibitors of RNA helicase DHX9 and uses thereof” (ACCENT THERAPEUTICS, INC., priority 2022, dated 2024).
Where two headings read alike, the source gives them in different places.

Tested on: circBRIP1 in HCT116 cells
Assay: DHX9 circBRIP1 cellular target engagement SYBR Green assay (qPCR)
Type: cell-based
Settings: Homo sapiens
[1] = HCT-116, circBRIP1, HCT116 cells, SyBr assay (marked ^+), read-out: DHX9 Cellular Target Engagement EC50
[2] = HCT-116, read-out: DHX9 Cellular Target Engagement EC50

Compound | EC50 [1] [nM] | EC50 [2] [nM]
CC(=O)N1CCN(c2ccnc(-n3cc(C(=O)Nc4cc(Cl)cc(NS(C)(=O)=O)c4)cn3)c2)CC1 [Example 148, 1-[4-(4-acetylpiperazin-1-yl)pyridin-2-yl]-N-(3-chloro-5-methanesulfonamidophenyl)-1H-pyrazole-4-carboxamide] | 4340 | 
CC(C)C(=O)N1CCN(c2ccc(-n3cc(C(=O)Nc4cc(Cl)cc(NS(C)(=O)=O)c4)cn3)nc2)CC1 [Example 149, N-(3-chloro-5-(methylsulfonamido)phenyl)-1-(5-(4-isobutyrylpiperazin-1-yl)pyridin-2-yl)-1H-pyrazole-4-carboxamide] | 1800 | 
CS(=O)(=O)Nc1cc(Cl)cc(NC(=O)c2cnn([C@H]3CC[C@@H](O)CC3)c2)c1 [Example 151, N-(3-chloro-5-(methylsulfonamido)phenyl)-1-((1s,4s)-4-hydroxycyclohexyl)-1H-pyrazole-4-carboxamide] | > 10000 | 
Cn1cc(C(=O)Nc2cc(Cl)cc(NS(C)(=O)=O)c2)nc1-c1ccccc1 [Example 155, N-(3-chloro-5-(methylsulfonamido)phenyl)-1-methyl-2-phenyl-1H-imidazole-4-carboxamide] | 3610 | 
Cc1cccnc1-c1nc(C(=O)Nc2cc(Cl)cc(NS(C)(=O)=O)c2)cn1C [Example 156] | > 10000 | 
Cn1cc(C(=O)Nc2cc(Cl)cc(NS(C)(=O)=O)c2)cc1N1CCCCC1=O [Example 158, N-(3-chloro-5-(methylsulfonamido)phenyl)-1-methyl-5-(2-oxopiperidin-1-yl)-1H-pyrrole-3-carboxamide] | 1290 | 
CS(=O)(=O)Nc1cc(Br)cc(NC(=O)c2cnn(-c3ccccc3CO)c2)c1 [Example 161, N-(3-bromo-5-(methylsulfonamido)phenyl)-1-(2-(hydroxymethyl)phenyl)-1H-pyrazole-4-carboxamide] | 1420 | 
CS(=O)(=O)Nc1cc(Br)cc(NC(=O)c2cnn(-c3ncccc3N)c2)c1 [Example 162, 1-(3-aminopyridin-2-yl)-N-(3-bromo-5-(methylsulfonamido)phenyl)-1H-pyrazole-4-carboxamide] | 138 | 
CS(=O)(=O)Nc1cc(Cl)cc(NC(=O)c2cc(C(=O)Nc3ccccc3)cs2)c1 [Example 166, N2-(3-chloro-5-(methylsulfonamido)phenyl)-N4-phenylthiophene-2,4-dicarboxamide] | 2390 | 
CS(=O)(=O)Nc1cc(Cl)cc(NC(=O)c2cnn(-c3ncccc3COc3ccccc3)c2)c1 [Example 167, N-(3-chloro-5-(methylsulfonamido)phenyl)-1-(3-(phenoxymethyl)pyridin-2-yl)-1H-pyrazole-4-carboxamide] |  | 1750
CS(=O)(=O)Nc1cc(Cl)cc(NC(=O)c2cnn(-c3ncccc3NCc3ccccc3)c2)c1 [Example 168, 1-(3-(benzylamino)pyridin-2-yl)-N-(3-chloro-5-(methylsulfonamido)phenyl)-1H-pyrazole-4-carboxamide] |  | 2130
CCS(=O)(=O)Nc1cc(Cl)cc(NC(=O)c2cc(-c3ncccn3)n(C)c2)c1 [Example 173, N-(3-chloro-5-(ethylsulfonamido)phenyl)-1-methyl-5-(pyrimidin-2-yl)-1H-pyrrole-3-carboxamide] | 118 | 
CS(=O)(=O)Nc1cc(Cl)cc(NC(=O)c2cnn(-c3ncccc3OCc3cccc(O)c3)c2)c1 [Example 179] | 997 | 
CS(=O)(=O)Nc1cc(Cl)cc(NC(=O)c2cnn(-c3ccc(N4CCOCC4=O)cn3)c2)c1 [Example 180] | 1200 | 
CS(=O)(=O)Nc1cc(Cl)cc(NC(=O)c2cc(CN)n(-c3ccccn3)c2)c1 [Example 181] | 2090 | 
CS(=O)(=O)Nc1cc(Cl)cc(NC(=O)c2cnn(C3CCOC3)c2)c1 (stereo not shown) [Example 182] | > 10000 | 
CN1CCN(c2cnc(-n3cc(C(=O)Nc4cc(Cl)cc(NS(C)(=O)=O)c4)cn3)nc2)CC1=O [Example 183] | > 10000 | 
CN1CCN(c2cnc(-n3cc(C(=O)Nc4cc(Cl)cc(NS(C)(=O)=O)c4)cn3)cn2)CC1=O [Example 184] | > 10000 | 
CS(=O)(=O)Nc1cc(Cl)cc(NC(=O)c2cnn(-c3ncccc3OCc3cncnc3)c2)c1 [Example 188] | 1460 | 
